Results from paper PMC2630368 (The Journal of pharmacology and experimental therapeutics, 2008).
Like-named read-outs stand apart in the source and are kept apart here.

What was measured:
ρ1 GABAC receptors = conditions: ref Chebib et al., 2007, cited from earlier work; for Potency at GABAC relative to GABAA receptors / Potency at GABAC relative to GABAB receptors: ρ1 GABAC
human ρ1 GABAC receptors = human ρ1 GABAC receptors (Homo sapiens, UniProt P24046); assay type: cell-based; conditions: for Mode of antagonism at ρ1 GABAC receptors: GABA dose response curve in presence of 40 μM cis or 30 μM trans; for Effect when applied alone at ρ1 GABAC receptors: applied alone (cis 40 μM, trans 30 μM)
[1] = tested on: lens induced myopia in chick; conditions: negative lens, ref Schmid et al., 2004; cited from earlier work
male Wistar rats = assay: Morris Water Maze learning and memory in rats; assay type: in vivo, rat; conditions: for Behavior in pool, D1 / Behavior in pool, D2: grade 0-8; for Number to reach platform, D1 / Number to reach platform, D2: n=10
[2] = tested on: human α1β2γ2L GABAA receptors; assay: Two-electrode voltage clamp on recombinant GABAA; assay type: cell-based; conditions: for Percentage inhibition of GABA response at GABAA(α1β2γ2L): compound 1 mM against an EC50 concentration of GABA (60 μM), n=3; for Response when applied alone (agonist effect) at GABAA(α1β2γ2L): compound 1 mM alone
[3] = tested on: human GABAB(1b,2) receptors; assay: Two-electrode voltage clamp on recombinant GABAB; assay type: cell-based; conditions: for Percentage inhibition of GABA response at GABAB(1b,2): compound 1 mM against an EC50 concentration of GABA (3 μM), GIRK1 and GIRK4, n=3; for Response when applied alone (agonist effect) at GABAB(1b,2): compound 1 mM alone
human ρ2 GABAC receptors = human ρ2 GABAC receptors (Homo sapiens, UniProt P28476); assay type: cell-based
[4] = tested on: native GABAC receptor on rat retinal bipolar cells; assay: Whole-cell patch-clamp on dissociated rat retinal bipolar cells; assay type: cell-based; conditions: GABA 10 μM, bicuculline 100 μM
[5] = tested on: lens induced myopia in chick; assay: Lens induced myopia; assay type: in vivo; conditions: for Axial expansion (interocular difference) / Myopia (refractive error, interocular difference): 350 nmol intravitreal daily, −15 D lens, 4.5 days, mean ± SD; for Axial expansion reduction / Myopia reduction: 350 nmol intravitreal, versus water injected control
male QS mice = assay: General behavioral and acute toxicity tests in mice; assay type: in vivo; conditions: 1, 10 and 100 mg/kg ip; 0 min to 1 week after injection
[6] = compound 30 μM co-applied with GABA (1 μM)
[7] = 10 mg/kg ip on D1, Trial 1, Day 1
[8] = 10 mg/kg ip on D1, Trial 1, Day 2
[9] = 30 mg/kg ip on D1, Trial 1, Day 1
[10] = 30 mg/kg ip on D1, Trial 1, Day 2
[11] = 100 mg/kg ip on D1, Trial 1, Day 1
[12] = 100 mg/kg ip on D1, Trial 1, Day 2

Chain of human ρ1 GABAC receptors (P24046 22-479): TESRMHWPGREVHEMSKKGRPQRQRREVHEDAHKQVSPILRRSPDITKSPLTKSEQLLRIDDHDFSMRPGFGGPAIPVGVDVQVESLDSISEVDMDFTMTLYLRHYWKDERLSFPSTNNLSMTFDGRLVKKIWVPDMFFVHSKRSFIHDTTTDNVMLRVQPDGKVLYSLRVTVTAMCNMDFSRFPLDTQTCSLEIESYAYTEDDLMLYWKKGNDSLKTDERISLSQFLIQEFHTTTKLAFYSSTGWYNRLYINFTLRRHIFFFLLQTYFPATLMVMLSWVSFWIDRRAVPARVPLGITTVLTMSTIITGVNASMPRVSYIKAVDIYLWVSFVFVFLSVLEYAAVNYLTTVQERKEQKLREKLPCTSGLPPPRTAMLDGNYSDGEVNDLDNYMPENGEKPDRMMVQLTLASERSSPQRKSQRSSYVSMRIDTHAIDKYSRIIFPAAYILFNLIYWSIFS
Chain of human ρ2 GABAC receptors (P28476 21-465): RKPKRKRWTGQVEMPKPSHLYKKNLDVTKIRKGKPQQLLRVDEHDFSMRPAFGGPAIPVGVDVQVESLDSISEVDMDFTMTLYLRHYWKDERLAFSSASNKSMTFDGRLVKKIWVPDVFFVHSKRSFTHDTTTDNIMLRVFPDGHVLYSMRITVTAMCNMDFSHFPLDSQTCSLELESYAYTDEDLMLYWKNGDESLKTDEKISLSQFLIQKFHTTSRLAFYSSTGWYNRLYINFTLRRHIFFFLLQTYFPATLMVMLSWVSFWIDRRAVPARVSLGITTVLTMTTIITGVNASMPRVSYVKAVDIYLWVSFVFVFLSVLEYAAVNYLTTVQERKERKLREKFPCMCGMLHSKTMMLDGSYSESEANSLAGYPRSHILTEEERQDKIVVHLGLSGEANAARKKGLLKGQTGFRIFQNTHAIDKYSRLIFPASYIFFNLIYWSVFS

CP(=O)(O)[C@H]1CC[C@@H](N)C1 (relative stereo) [cis-3-ACPMPA, cis-(3-aminocyclopentanyl)methylphosphinic acid]
Mode of antagonism at GABAC receptors (ρ1 GABAC receptors): competitive antagonists | Potency at GABAC relative to GABAA receptors (ρ1 GABAC receptors): greater than 100 times | Potency at GABAC relative to GABAB receptors (ρ1 GABAC receptors): 50 times

CP(=O)(O)C1=CCNCC1 [TPMPA, (1,2,5,6-tetrahydropyridin-4-yl)methylphosphinic acid, reference compound]
Inhibition of the GABA response at ρ1 GABAC receptors (human ρ1 GABAC receptors; [6]): completely inhibited | Dose inhibiting a similar degree of lens-induced myopia [1]: 70 nmol

CCCCP(=O)(O)CCCN [CGP36742, (3-aminopropyl)-n-butylphosphinic acid]
Dose inhibiting a similar degree of lens-induced myopia [1]: 280 nmol

trans-(3-aminocyclopentanyl)methylphosphinic acid [trans-3-ACPMPA]
Mode of antagonism at GABAC receptors (ρ1 GABAC receptors): competitive antagonists | Potency at GABAC relative to GABAA receptors (ρ1 GABAC receptors): greater than 100 times | Potency at GABAC relative to GABAB receptors (ρ1 GABAC receptors): 50 times

CN1[C@@H]2C[C@@H](OC(=O)[C@H](CO)c3ccccc3)C[C@H]1[C@@H]1O[C@@H]12 [scopolamine, reference compound]
Time taken to find the platform (male Wistar rats; 1 mg/kg ip, D1, versus vehicle): statistically significant increase | Behavior score (male Wistar rats; 1 mg/kg ip, Trials 3 and 4 of D1, vehicle 6): 3

CCCCP(=O)(O)[C@H]1CC[C@@H](N)C1 (relative stereo) [cis-3-ACPBPA, cis-(3-aminocyclopentanyl)butylphosphinic acid]
Percentage inhibition of GABA response at GABAA(α1β2γ2L) [2]: 33±3% | Response when applied alone (agonist effect) at GABAA(α1β2γ2L) [2]: no response alone | Percentage inhibition of GABA response at GABAB(1b,2) [3]: 27±3% | Response when applied alone (agonist effect) at GABAB(1b,2) [3]: No response | Mode of antagonism at ρ1 GABAC receptors (human ρ1 GABAC receptors): competitive antagonists | Potency at GABAC relative to GABAA or GABAB receptors (human ρ1 GABAC receptors; GABAC versus GABAA or GABAB): over 100 times | Effect when applied alone at ρ1 GABAC receptors (human ρ1 GABAC receptors): no effect alone | Inhibition of the GABA response at ρ1 GABAC receptors (human ρ1 GABAC receptors; compound 40 μM co-applied with GABA (1 μM)): completely inhibited | IC50 (human ρ1 GABAC receptors; read-out: GABAC ρ1 IC50, GABA 1 μM, n=4): 5.06 µM | Potency relative to the trans analog at the ρ1 and ρ2 GABAC receptors (human ρ1 GABAC receptors; ρ1 and ρ2 GABAC receptors): approximately 15 times | IC50 (human ρ2 GABAC receptors; read-out: GABAC ρ2 IC50, GABA 1 μM, n=4): 11.1 µM | Hill coefficient [4]: 0.97 | IC50 ([4]; read-out: IC50 at native GABAC receptor, n=6): 47 ± 4.5 µM | Axial expansion (interocular difference) [5]: 0.17±0.17 mm | Myopia (refractive error, interocular difference) [5]: −2.3±2.6 D | Axial expansion reduction [5]: 70% | Myopia reduction [5]: 80% | Dose required to inhibit a similar degree of lens-induced myopia (>80%) ([5]; intravitreal, chick): 35 nmol | Overt acute toxicity (male QS mice): No overt acute toxicity | Median time to reach platform, D1 (male Wistar rats; [7]): 59 s | Behavior in pool, D1 (male Wistar rats; [7]): 3 | Number to reach platform, D1 (male Wistar rats; [7]): 5 | Median time to reach platform, D2 (male Wistar rats; [8]): 71 s | Behavior in pool, D2 (male Wistar rats; [8]): 4 | Number to reach platform, D2 (male Wistar rats; [8]): 8 | Median time to reach platform, D1 (male Wistar rats; [9]): 31 s | Behavior in pool, D1 (male Wistar rats; [9]): 4 ^*, 4 | Number to reach platform, D1 (male Wistar rats; [9]): 7 | Median time to reach platform, D2 (male Wistar rats; [10]): 35 s | Behavior in pool, D2 (male Wistar rats; [10]): 4 ^*, 4 | Number to reach platform, D2 (male Wistar rats; [10]): 9 | Median time to reach platform, D1 (male Wistar rats; [11]): 85 s | Behavior in pool, D1 (male Wistar rats; [11]): 3 | Number to reach platform, D1 (male Wistar rats; [11]): 5 | Median time to reach platform, D2 (male Wistar rats; [12]): 71 s | Behavior in pool, D2 (male Wistar rats; [12]): 4 | Number to reach platform, D2 (male Wistar rats; [12]): 6

CCCCP(=O)(O)C1CCC(N)C1 (stereo not drawn) [trans-3-ACPBPA, trans-(3-aminocyclopentanyl)butylphosphinic acid]
Percentage inhibition of GABA response at GABAA(α1β2γ2L) [2]: 28±5% | Response when applied alone (agonist effect) at GABAA(α1β2γ2L) [2]: no response alone | Percentage inhibition of GABA response at GABAB(1b,2) [3]: 35±5% | Response when applied alone (agonist effect) at GABAB(1b,2) [3]: No response | IC50 (human ρ1 GABAC receptors): 72.6 µM | Mode of antagonism at ρ1 GABAC receptors (human ρ1 GABAC receptors): competitive antagonists | Effect when applied alone at ρ1 GABAC receptors (human ρ1 GABAC receptors): no effect alone | Inhibition of the GABA response at ρ1 GABAC receptors (human ρ1 GABAC receptors; [6]): 70% | IC50 (human ρ2 GABAC receptors): 190 µM | Axial expansion (interocular difference) [5]: 0.15±0.15 mm | Myopia (refractive error, interocular difference) [5]: −3.1±2.8 D | Axial expansion reduction [5]: 74% | Myopia reduction [5]: 74% | Overt acute toxicity (male QS mice): No overt acute toxicity | Median time to reach platform, D1 (male Wistar rats; [7]): 77 s | Behavior in pool, D1 (male Wistar rats; [7]): 3 | Number to reach platform, D1 (male Wistar rats; [7]): 5 | Median time to reach platform, D2 (male Wistar rats; [8]): 44 s | Behavior in pool, D2 (male Wistar rats; [8]): 4 | Number to reach platform, D2 (male Wistar rats; [8]): 8 | Median time to reach platform, D1 (male Wistar rats; [9]): 82 s | Behavior in pool, D1 (male Wistar rats; [9]): 3 | Number to reach platform, D1 (male Wistar rats; [9]): 5 | Median time to reach platform, D2 (male Wistar rats; [10]): 47 s | Behavior in pool, D2 (male Wistar rats; [10]): 5 | Number to reach platform, D2 (male Wistar rats; [10]): 8 | Median time to reach platform, D1 (male Wistar rats; [11]): 61 s | Behavior in pool, D1 (male Wistar rats; [11]): 4 | Number to reach platform, D1 (male Wistar rats; [11]): 6 | Median time to reach platform, D2 (male Wistar rats; [12]): 28 s | Behavior in pool, D2 (male Wistar rats; [12]): 6 | Number to reach platform, D2 (male Wistar rats; [12]): 9
